In patent publication US5747484A, “Crystalline cepham acid addition salts and processes for their preparation” (Hoechst Aktiengesellschaft, priority 1994, dated 1998):
Counter-ions that a name gives are not always drawn.

Conditions: bovine, in vivo, im, 5 mg/kg
Protocol: The terminal half-lives (t1/2) after single injection (i.m.) of 5 mg of betaine VI (n=2) per kg of body weight for cattle are summarized in Table 1 for compounds according to the invention. […] The known salts sulfate and dihydroiodide from DE 3 706 020 are used as a standard.

Structure (SMILES) | Terminal half-lives (t1/2) [h]
CO/N=C(\C(=O)N[C@@H]1C(=O)N2C(C(=O)[O-])=C(C[n+]3cccc4c3CCCC4)CS[C@H]12)c1csc(N)n1 [Dihydroiodide, reference compound] | 4.19
CO/N=C(\C(=O)N[C@@H]1C(=O)N2C(C(=O)[O-])=C(C[n+]3cccc4c3CCCC4)CS[C@H]12)c1csc(N)n1 [Example 1, Cefquinome-6-hydroxy-1-naphthoate] | 9.20
CO/N=C(\C(=O)N[C@@H]1C(=O)N2C(C(=O)[O-])=C(C[n+]3cccc4c3CCCC4)CS[C@H]12)c1csc(N)n1 [Example 2] | 18.8
CO/N=C(\C(=O)N[C@@H]1C(=O)N2C(C(=O)[O-])=C(C[n+]3cccc4c3CCCC4)CS[C@H]12)c1csc(N)n1 [Example 6] | 5.87
CO/N=C(\C(=O)N[C@@H]1C(=O)N2C(C(=O)[O-])=C(C[n+]3cccc4c3CCCC4)CS[C@H]12)c1csc(N)n1 [Example 9] | 15.6
CO/N=C(\C(=O)N[C@@H]1C(=O)N2C(C(=O)[O-])=C(C[n+]3cccc4c3CCCC4)CS[C@H]12)c1csc(N)n1 [Example 11, cefquinome-2,4-dihydroxybenzoate] | 16.20
CO/N=C(\C(=O)N[C@@H]1C(=O)N2C(C(=O)[O-])=C(C[n+]3cccc4c3CCCC4)CS[C@H]12)c1csc(N)n1 [Example 12] | 15.20
CO/N=C(\C(=O)N[C@@H]1C(=O)N2C(C(=O)[O-])=C(C[n+]3cccc4c3CCCC4)CS[C@H]12)c1csc(N)n1 [Example 13] | 9.21
CO/N=C(\C(=O)N[C@@H]1C(=O)N2C(C(=O)[O-])=C(C[n+]3cccc4c3CCCC4)CS[C@H]12)c1csc(N)n1 [Example 15] | 11.1
CO/N=C(\C(=O)N[C@@H]1C(=O)N2C(C(=O)[O-])=C(C[n+]3cccc4c3CCCC4)CS[C@H]12)c1csc(N)n1 [Example 16] | 9.16
CO/N=C(\C(=O)N[C@@H]1C(=O)N2C(C(=O)[O-])=C(C[n+]3cccc4c3CCCC4)CS[C@H]12)c1csc(N)n1 [Example 17] | 17.8
CO/N=C(\C(=O)N[C@@H]1C(=O)N2C(C(=O)[O-])=C(C[n+]3cccc4c3CCCC4)CS[C@H]12)c1csc(N)n1 [Example 18] | 13.00
CO/N=C(\C(=O)N[C@@H]1C(=O)N2C(C(=O)[O-])=C(C[n+]3cccc4c3CCCC4)CS[C@H]12)c1csc(N)n1 [Example 19] | 7.07
CO/N=C(\C(=O)N[C@@H]1C(=O)N2C(C(=O)[O-])=C(C[n+]3cccc4c3CCCC4)CS[C@H]12)c1csc(N)n1 [Example 20] | 9.39
CO/N=C(\C(=O)N[C@@H]1C(=O)N2C(C(=O)[O-])=C(C[n+]3cccc4c3CCCC4)CS[C@H]12)c1csc(N)n1 [Example 21] | 9.96
CO/N=C(\C(=O)N[C@@H]1C(=O)N2C(C(=O)[O-])=C(C[n+]3cccc4c3CCCC4)CS[C@H]12)c1csc(N)n1 [Example 22] | 8.77
CO/N=C(\C(=O)N[C@@H]1C(=O)N2C(C(=O)[O-])=C(C[n+]3cccc4c3CCCC4)CS[C@H]12)c1csc(N)n1 [Example 23] | 12.70
CO/N=C(\C(=O)N[C@@H]1C(=O)N2C(C(=O)[O-])=C(C[n+]3cccc4c3CCCC4)CS[C@H]12)c1csc(N)n1 [Sulfate, cefquinome sulfate, reference compound] | 2.15
